Test results as given in patent US20040116405A1, “Use of bicyclic esters or amides for the treatment of diseases responsive to enhanced potassium channel activity” (priority 2001, published 2004).

Target: T1, hIK channels (Homo sapiens, UniProt O15554)
T1 construct: The full length hSK-1, 2, 3 and IK clones were obtained; expressed in transfected cells
Assay: Whole cell patch clamp electrophysiology, hIK channels expressed in CHO-K1 cells (FIG. 1)
Type: cell-based
Procedure: FIG. 1 illustrates the activation of hIK channels expressed in CHO—K1 cells by a compound of formula (V): [drawing 3]
The full length hSK-1, 2, 3 and IK clones were obtained either by PCR and 5′-RACE from a human cDNA library (Genbank accession numbers hSK1 U69883; hSK-2 unpublished) or from the Incyte or dbEST databases (Incyte Pharmaceuticals, Inc.; hSK3 AJ251016, hIK AF022797). An optimal Kozak sequence was added to the initiation site and the cDNA was cloned into Bluescript and subsequently the IRES vector pCIN5 for mammalian expression.
All SK/IK stable cell lines were generated in CHO—K1 using the pCIN5 construct, under selection for resistance to 500 μg/ml geneticin. Five μg of the purified plasmid DNA was used to transfect 5×10^6 CHO—K1 cells (ATCC N° CRL 9618) by electroporation (standard protocol with BIORAD Gene Pulser II). […]
Standard whole cell patch clamp electrophysiology methods are used to record membrane currents from single cells expressing either SK or IK channels. […] Membrane currents are amplified and recorded with an Axopatch 200B or HEKA EPC-9 patch clamp amplifier coupled to a Pentium microprocessor via an analog-digital interface. […] Pipettes are backfilled with an internal solution containing a 144 mM KCl, 10 mM EGTA, 10 mM HEPES, 1 mM MgCl2 and concentrations of CaCl2 calculated to give free Ca^2+ concentrations ranging from 30 nM to 1 μM. […]

Row | Molecule | activation of hIK channels (whole cell currents, timecourse, concentration response curves) (hIK expressed in CHO-K1 cells, FIG. 1(a)-(c)) | inhibition of hIK current by the IK blocker (charybdotoxin 100 nM, hIK in CHO-K1 cells activated by compound of formula (V), FIG. 1(d))
1 | NC(=O)/C=C1\CCc2c(F)cc(F)cc21 [compound of formula (V)] | activation | 
2 | charybdotoxin |  | inhibition
